Species on record: Rattus norvegicus
Test: DrugMatrix - Regimen: Daily Repeat
Assay type: toxicity, organism-based, Sprague-Dawley
Set-up: regimen Daily Repeat, gender Male, age 6-8 weeks
Details: in vivo, po, […], route oral GAVAGE; for BASOPHIL / EOSINOPHIL / ERYTHROCYTE COUNT / HEMATOCRIT / HEMOGLOBIN / LEUKOCYTE COUNT / LYMPHOCYTE / MEAN CORPUSCULAR HEMOGLOBIN / MEAN CORPUSCULAR HEMOGLOBIN CONCENTRATION / MEAN CORPUSCULAR VOLUME / MONOCYTE / NEUTROPHIL / PLATELET COUNT / ABSOLUTE BASOPHIL / ABSOLUTE EOSINOPHIL / ABSOLUTE LYMPHOCYTE / ABSOLUTE MONOCYTE / ABSOLUTE SEGMENTED NEUTROPHIL / NUCLEATED RED BLOOD CELLS: tissue Blood; for ALANINE AMINOTRANSFERASE / ALBUMIN / ALKALINE PHOSPHATASE / ASPARTATE AMINOTRANSFERASE / BLOOD UREA NITROGEN / CHLORIDE / CHOLESTEROL / CREATINE PHOSPHOKINASE / CREATININE / GLUCOSE / PHOSPHORUS / POTASSIUM / SODIUM / TOTAL BILIRUBIN / TOTAL PROTEIN / CARBON DIOXIDE / LACTATE DEHYDROGENASE / LIPASE / URIC ACID: tissue Plasma
[1] = 11 mg/kg, dose level High, time 28 day
[2] = 72 h, dose 2.5 mg/Kg, dose level Low, time 3 day
[3] = 120 h, dose 2.5 mg/Kg, dose level Low, time 5 day

O=[N+]([O-])c1cc([As](=O)(O)O)ccc1O [ROXARSONE]
BASOPHIL [1]: 0.47%
EOSINOPHIL [1]: 0.51%
ERYTHROCYTE COUNT [1]: 8.5 x10E6/uL
HEMATOCRIT [1]: 51.09%
HEMOGLOBIN [1]: 16.79 G/DL
LEUKOCYTE COUNT [1]: 12.9 x10E3/uL
LYMPHOCYTE [1]: 81.69%
MEAN CORPUSCULAR HEMOGLOBIN [1]: 19.74 pg
MEAN CORPUSCULAR HEMOGLOBIN CONCENTRATION [1]: 32.83 G/DL
MEAN CORPUSCULAR VOLUME [1]: 60.14 fL
MONOCYTE [1]: 1.78%
NEUTROPHIL [1]: 14.18%
PLATELET COUNT [1]: 1300.33 x10E3/uL
ALANINE AMINOTRANSFERASE [1]: 30.56 u/L
ALBUMIN [1]: 3.98 G/DL
ALKALINE PHOSPHATASE [1]: 205 u/L
ASPARTATE AMINOTRANSFERASE [1]: 60.78 u/L
BLOOD UREA NITROGEN [1]: 11.78 mg/dL
CHLORIDE [1]: 107.33 MEQ/L
CHOLESTEROL [1]: 57.22 mg/dL
CREATINE PHOSPHOKINASE [1]: 179.11 u/L
CREATININE [1]: 0.44 mg/dL
GLUCOSE [1]: 136.78 mg/dL
PHOSPHORUS [1]: 11.58 mg/dL
POTASSIUM [1]: 6.69 MEQ/L
SODIUM [1]: 152.22 MEQ/L
TOTAL BILIRUBIN [1]: 0.23 mg/dL
TOTAL PROTEIN [1]: 6.68 G/DL
ABSOLUTE BASOPHIL [2]: 0 CELLS/uL
ABSOLUTE EOSINOPHIL [2]: 0 CELLS/uL
ABSOLUTE LYMPHOCYTE [2]: 9950.67 CELLS/uL
ABSOLUTE MONOCYTE [2]: 307.67 CELLS/uL
ABSOLUTE SEGMENTED NEUTROPHIL [2]: 1408.33 CELLS/uL
BASOPHIL [2]: 0%
EOSINOPHIL [2]: 0%
ERYTHROCYTE COUNT [2]: 5.09 x10E6/uL
HEMATOCRIT [2]: 33.27%
HEMOGLOBIN [2]: 13.17 G/DL
LEUKOCYTE COUNT [2]: 11.67 x10E3/uL
LYMPHOCYTE [2]: 85.33%
MEAN CORPUSCULAR HEMOGLOBIN [2]: 25.9 pg
MEAN CORPUSCULAR HEMOGLOBIN CONCENTRATION [2]: 39.6 G/DL
MEAN CORPUSCULAR VOLUME [2]: 65.4 fL
MONOCYTE [2]: 2.67%
NEUTROPHIL [2]: 12%
NUCLEATED RED BLOOD CELLS [2]: 0 /100WBC
PLATELET COUNT [2]: 1052.67 x10E3/uL
ALANINE AMINOTRANSFERASE [2]: 79.33 u/L
ALBUMIN [2]: 4.07 G/DL
ALKALINE PHOSPHATASE [2]: 426.33 u/L
ASPARTATE AMINOTRANSFERASE [2]: 104 u/L
BLOOD UREA NITROGEN [2]: 11 mg/dL
CARBON DIOXIDE [2]: 22 mmol/L
CHLORIDE [2]: 103.67 MEQ/L
CHOLESTEROL [2]: 66.33 mg/dL
CREATINE PHOSPHOKINASE [2]: 289.33 u/L
CREATININE [2]: 0.18 mg/dL
GLUCOSE [2]: 163.33 mg/dL
LACTATE DEHYDROGENASE [2]: 290.33 u/L
LIPASE [2]: 12.33 u/L
PHOSPHORUS [2]: 11 mg/dL
POTASSIUM [2]: 6.16 MEQ/L
SODIUM [2]: 142.77 MEQ/L
TOTAL BILIRUBIN [2]: 0.2 mg/dL
TOTAL PROTEIN [2]: 5.47 G/DL
URIC ACID [2]: 1.57 mg/dL
ABSOLUTE BASOPHIL [3]: 0 CELLS/uL
ABSOLUTE EOSINOPHIL [3]: 60.33 CELLS/uL
ABSOLUTE LYMPHOCYTE [3]: 15548.33 CELLS/uL
ABSOLUTE MONOCYTE [3]: 0 CELLS/uL
ABSOLUTE SEGMENTED NEUTROPHIL [3]: 2058 CELLS/uL
BASOPHIL [3]: 0%
EOSINOPHIL [3]: 0.33%
ERYTHROCYTE COUNT [3]: 5.56 x10E6/uL
HEMATOCRIT [3]: 35.6%
HEMOGLOBIN [3]: 14.43 G/DL
LEUKOCYTE COUNT [3]: 17.67 x10E3/uL
LYMPHOCYTE [3]: 88%
MEAN CORPUSCULAR HEMOGLOBIN [3]: 26 pg
MEAN CORPUSCULAR HEMOGLOBIN CONCENTRATION [3]: 40.53 G/DL
MEAN CORPUSCULAR VOLUME [3]: 64.1 fL
MONOCYTE [3]: 0%
NEUTROPHIL [3]: 11.67%
NUCLEATED RED BLOOD CELLS [3]: 0.33 /100WBC
PLATELET COUNT [3]: 1233.67 x10E3/uL
ALANINE AMINOTRANSFERASE [3]: 63.33 u/L
ALBUMIN [3]: 4.23 G/DL
ALKALINE PHOSPHATASE [3]: 389.33 u/L
ASPARTATE AMINOTRANSFERASE [3]: 94 u/L
BLOOD UREA NITROGEN [3]: 13 mg/dL
CARBON DIOXIDE [3]: 32.33 mmol/L
CHLORIDE [3]: 100.67 MEQ/L
CHOLESTEROL [3]: 60.67 mg/dL
CREATINE PHOSPHOKINASE [3]: 298.67 u/L
CREATININE [3]: 0.18 mg/dL
GLUCOSE [3]: 151 mg/dL
LACTATE DEHYDROGENASE [3]: 370 u/L
LIPASE [3]: 11.67 u/L
PHOSPHORUS [3]: 10.73 mg/dL
POTASSIUM [3]: 6.25 MEQ/L
SODIUM [3]: 142.83 MEQ/L
TOTAL BILIRUBIN [3]: 0.2 mg/dL
TOTAL PROTEIN [3]: 6.03 G/DL
URIC ACID [3]: 1.77 mg/dL

Source: ChEMBL document CHEMBL3885881, “DrugMatrix”
